Some test systems named below: UO-31 renal; SN12C renal; HOP-92 NSCLC; SK-OV-3 ovarian; MOLT-4 leukemia; MDA-MB-435; DU-145 prostate; HCT-116 colon; T-47D breast; MDA-N.
Common to all, as to assay: inhibition of tumour cell growth, NCI panel, 48 h

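Grown in 96-well plates, cells were treated for 48 hours with each compound at five concentrations. Insufficient inhibition: endpoint recorded as highest concentration tested. GI50: concentration for 50% inhibition of growth. Definition used: TGI = concentration required for complete inhibition of growth.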

The text below walks through data of PubChem BioAssay (NCI).

Turning to `COc1cc2c(cc1OC)C(Cl)C(c1ccc(Cl)cc1)=C2Cl` (stereo not given), the TGI in the assay on UO-31 renal came to 32.6 µM; in the assay with SN12C renal, 48.6 µM; with HOP-92 NSCLC, 32.3 µM; in the assay on SK-OV-3 ovarian, 57.5 µM; in the assay with MOLT-4 leukemia, 42.5 µM.
For `O=C(c1cc(Br)ccc1O)c1cc(Br)ccc1O`, the TGI with UO-31 renal turned out to be 27.4 µM; with MDA-MB-435 it was 29.3 µM; with DU-145 prostate it was 29.2 µM; with SN12C renal, 32.6 µM; with HCT-116 colon, 29.4 µM; in the assay with HOP-92 NSCLC, 27.1 µM. In addition, the TGI in the assay with SK-OV-3 ovarian worked out at 35.8 µM; in the assay on T-47D breast it was 29.2 µM; in the assay with MOLT-4 leukemia it was 39 µM; with MDA-N, 29.5 µM.
With `COc1ccc(CNc2nc(NCc3ccc(OC)cc3)nc(NC(C)C)n2)cc1`, the TGI in the assay on UO-31 renal is > 100 µM; in the assay on MDA-MB-435 it was 11.2 µM; with DU-145 prostate it was 66 µM; in the assay with HCT-116 colon, 12.4 µM; with HOP-92 NSCLC, 48.7 µM; in the assay with SK-OV-3 ovarian it was > 100 µM. Also, the TGI in the assay on T-47D breast was > 100 µM; in the assay with MOLT-4 leukemia it was > 100 µM; with MDA-N it was 10.3 µM.
Turning to `c1ccc2c[n+](CCCCCCCCCC[n+]3ccc4ccccc4c3)ccc2c1`, the TGI with UO-31 renal is > 10 µM; with MDA-MB-435, > 10 µM; in the assay on DU-145 prostate, > 10 µM; with SN12C renal, > 8.94 µM; in the assay with HCT-116 colon, > 10 µM; in the assay with HOP-92 NSCLC, > 10 µM. Besides, the TGI in the assay with SK-OV-3 ovarian, in the assay with T-47D breast and in the assay with MDA-N was > 10 µM in each case.
`O=C(CSCC(=O)N/N=C/c1cccc(OCc2ccccc2)c1)N/N=C/c1cccc(OCc2ccccc2)c1`: the TGI in the assay on UO-31 renal was > 100 µM; in the assay on MDA-MB-435 it was > 100 µM; in the assay on DU-145 prostate it was > 100 µM; in the assay on SN12C renal it was > 74 µM; with HCT-116 colon, > 100 µM; with HOP-92 NSCLC it was 97.2 µM. Moreover, the values for the TGI in the assay with SK-OV-3 ovarian, with T-47D breast and in the assay on MOLT-4 leukemia were > 100 µM, > 100 µM and 46.4 µM, respectively.
Take `Cc1c2ccnc(-c3ccccc3)c2cc2c1[nH]c1ccccc12`: the TGI in the assay with UO-31 renal was 4.29 µM; in the assay on SN12C renal it was 7 µM; with HCT-116 colon, 4.61 µM; with HOP-92 NSCLC it was 3.12 µM; in the assay with SK-OV-3 ovarian it was 9.39 µM; in the assay with MOLT-4 leukemia, 6.96 µM.
As to `C[C@@H]1CC[C@H]2C(COC/C=C/COCC3=C(C(F)(F)F)O[C@@H]4O[C@@]5(C)CC[C@H]6[C@H](C)CC[C@@H]3[C@@]46OO5)=C(C(F)(F)F)O[C@@H]3O[C@@]4(C)CC[C@@H]1[C@]32OO4`, the GI50 in the assay with UO-31 renal was 0.786 µM; in the assay with MDA-MB-435, < 0.012 µM; with DU-145 prostate, 0.531 µM; in the assay on SN12C renal, 0.0191 µM; in the assay with HCT-116 colon, < 0.01 µM; with HOP-92 NSCLC it was < 0.032 µM. The GI50 in the assay with SK-OV-3 ovarian was > 100 µM; in the assay on MOLT-4 leukemia, < 0.01 µM. The TGI in the assay on UO-31 renal is > 100 µM; in the assay with DU-145 prostate, > 100 µM; in the assay with SN12C renal, 0.685 µM; with HCT-116 colon, > 100 µM; in the assay with SK-OV-3 ovarian, > 100 µM; in the assay with T-47D breast, > 100 µM. This molecule also had a TGI in the assay on MOLT-4 leukemia of 40.6 µM.
`C[n+]1cccc(/C=C/c2ccc3cccc(O)c3n2)c1`: the TGI in the assay with UO-31 renal, with MDA-MB-435, with DU-145 prostate, in the assay on SN12C renal, in the assay with HCT-116 colon and in the assay on HOP-92 NSCLC was > 100 µM each time. For the same molecule, the TGI with SK-OV-3 ovarian, with T-47D breast, in the assay with MOLT-4 leukemia and in the assay with MDA-N was > 100 µM in each case.
On to `CCOC(=O)N1c2ccccc2S(=O)(=O)c2ccccc21`, for which the TGI in the assay on UO-31 renal, with MDA-MB-435, in the assay with DU-145 prostate, with SN12C renal, in the assay on HCT-116 colon and in the assay with SK-OV-3 ovarian was > 100 µM each time. For the same molecule, the TGI in the assay on T-47D breast, with MOLT-4 leukemia and in the assay on MDA-N was > 100 µM each time.
Turning to `Cc1ccc(C)c(/C(=N\N=C(N)N)C2CC2)c1`, the TGI is > 100 µM in the assay on UO-31 renal; 63.9 µM in the assay on MDA-MB-435; > 100 µM in the assay with DU-145 prostate; > 100 µM in the assay on SN12C renal; 82.7 µM in the assay on HCT-116 colon; > 100 µM in the assay with HOP-92 NSCLC. Further, the TGI in the assay with SK-OV-3 ovarian is > 100 µM; in the assay on T-47D breast, > 100 µM; in the assay with MOLT-4 leukemia it was > 100 µM; in the assay on MDA-N it was 59.8 µM.
For the molecule `CCOC(=O)c1c2c(c(O)c3ccccc3c(O)n(-c3ccc(C)cc3)c1C)C(=O)C=CC2=O`, the TGI is > 100 µM in the assay on UO-31 renal; 35.7 µM in the assay with MDA-MB-435; 91 µM in the assay on DU-145 prostate; 58.9 µM in the assay with SN12C renal; 38.3 µM with HCT-116 colon; 56.9 µM with HOP-92 NSCLC. Also, the values for the TGI with SK-OV-3 ovarian, with T-47D breast and in the assay with MOLT-4 leukemia were 89.7 µM, 39.4 µM and 29.4 µM, respectively.
Consider `Cc1ncc(CO)c(CN)c1O`, for which the TGI in the assay on UO-31 renal, in the assay on MDA-MB-435, in the assay on DU-145 prostate, in the assay with SN12C renal, in the assay on HCT-116 colon and in the assay with SK-OV-3 ovarian was > 100 µM throughout. Besides, the TGI in the assay with T-47D breast, with MOLT-4 leukemia and in the assay on MDA-N was > 100 µM each time.
